Laboratory results from patent US9512107B2, “Therapeutically active compositions and their methods of use” (Agios Pharmaceuticals, Inc., priority 2012, dated 2016).

Key:
[1] = target: T1, IDH2 R140Q (Homo sapiens, UniProt P48735, R140Q); experiment: IDH2 R140Q enzymatic assay (cofactor depletion, similar format); type: biochemical; conditions: for IC50: read-out: Enz R140Q
T1 sequence (P48735 40-452 R140Q): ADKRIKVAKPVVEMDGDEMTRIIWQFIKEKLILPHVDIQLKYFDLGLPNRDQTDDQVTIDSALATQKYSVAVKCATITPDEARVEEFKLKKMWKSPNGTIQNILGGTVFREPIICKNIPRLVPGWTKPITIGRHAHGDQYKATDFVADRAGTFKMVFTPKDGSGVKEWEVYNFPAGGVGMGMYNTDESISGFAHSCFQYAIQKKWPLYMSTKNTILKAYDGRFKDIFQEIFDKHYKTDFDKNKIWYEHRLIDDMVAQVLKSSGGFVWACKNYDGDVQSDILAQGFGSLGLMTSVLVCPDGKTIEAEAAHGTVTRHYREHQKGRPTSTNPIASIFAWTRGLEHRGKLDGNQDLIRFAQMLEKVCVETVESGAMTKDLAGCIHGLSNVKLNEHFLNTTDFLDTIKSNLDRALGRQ
Description: [The source words this procedure for another variant and says it was used here with some conditions changed.] Compounds are assayed for IDH2 R172K inhibitory activity through a cofactor depletion assay. […] The reaction is terminated by the addition of a second enzyme, diaphorase, and a corresponding substrate, resazurin. Diaphorase reduces resazurin to the highly fluorescent resorufin with the concomitant oxidation of NADPH to NADP, both halting the IDH2 reaction by depleting the available cofactor pool and facilitating quantitation of the amount of cofactor remaining after a specific time period through quantitative production of an easily detected fluorophore.
The test compound is then incubated for one hour at room temperature with the enzyme; before starting the IDH2 reaction with the addition of 10 μl of substrate mix containing 50 μM NADPH and 6.3 mM α-KG in the buffer described above. After a further one hour of incubation at room temperature, the reaction is halted and the remaining NADPH measured through conversion of resazurin to resorufin by the addition of 25 μl Stop Mix (36 μg/ml diaphorase enzyme and 60 μM resazurin; in buffer).

[2] = tested on: U87MG pLVX-IDH2 R140Q-neo cells; experiment: U87MG pLVX-IDH2 R140Q-neo cell based assay, 2-HG in media by LC-MS at 48 hours; conditions: Homo sapiens, U-87 MG
Description: U87MG pLVX-IDH2 R140Q-neo cells are grown in T125 flasks in DMEM containing 10% FBS, 1× penicillin/streptomycin and 500 μg/mL G418. They are harvested by trypsin and seeded into 96 well white bottom plates at a density of 5000 cell/well in 100 μl/well in DMEM with 10% FBS. No cells are plated in columns 1 and 12. Cells are incubated overnight at 37° C. in 5% CO2. The next day compounds are made up at 2× concentration and 100 ul are added to each cell well. The final concentration of DMSO is 0.2% and the DMSO control wells are plated in row G. The plates are then placed in the incubator for 48 hours. At 48 hours, 100 ul of media is removed from each well and analyzed by LC-MS for 2-HG concentrations. The cell plate is placed back in the incubator for another 24 hours. At 72 hours post compound addition, 10 mL/plate of Promega Cell Titer Glo reagent is thawed and mixed. The cell plate is removed from the incubator and allowed to equilibrate to room temperature. Then 100 ul of reagent is added to each well of media. The cell plate is then placed on an orbital shaker for 10 minutes and then allowed to sit at room temperature for 20 minutes. The plate is then read for luminescence with an integration time of 500 ms to determine compound effects on growth inhibition.

SMILES | IC50 [1] | IC50 [2] | Enz R140Q [1]
COC(=O)c1cc(Nc2nc(NC(C)C)nc(-c3ccccc3)n2)ccn1 [Compound 346] | < 100 nM | 100 to 1000 nM | 
CC(C)Nc1nc(Nc2ccnc(C#N)c2)nc(-c2ccccc2F)n1 [Compound 369, 4-(4-(2-fluorophenyl)-6-(isopropylamino)-1,3,5-triazin-2-ylamino)picolinonitrile] | < 100 nM | < 100 nM | 
CC(C)Nc1nc(Nc2ccnc(C#N)c2)nc(-c2cccc(C(F)(F)F)n2)n1 [Compound 404, 4-(4-(isopropylamino)-6-(6-(trifluoromethyl)pyridin-2-yl)-1,3,5-triazin-2-ylamino)picolinonitrile] | 100 to 1000 nM | < 100 nM | 
CC(C)Nc1nc(Nc2cncc(C#N)c2)nc(-c2cccc(Cl)n2)n1 [Compound 382, 5-(4-(6-chloropyridin-2-yl)-6-(isopropylamino)-1,3,5-triazin-2-ylamino)nicotinonitrile] | 100 to 1000 nM | < 100 nM | 
FC(F)(F)c1cncc(Nc2nc(NC3COC3)nc(-c3cccc(C(F)(F)F)n3)n2)c1 [Compound 379, N^2-(oxetan-3-yl)-6-(6-(trifluoromethyl)pyridin-2-yl)-N^4-(5-(trifluoromethyl)pyridin-3-yl)-1,3,5-triazine-2,4-diamine] | 100 to 1000 nM | < 100 nM | 
CC(C)Nc1nc(Nc2cncc(C#N)c2)nc(-c2ccccc2F)n1 [Compound 321, 5-(4-(2-fluorophenyl)-6-(isopropylamino)-1,3,5-triazin-2-ylamino)nicotinonitrile] | < 100 nM | < 100 nM | 
CC(C)Nc1nc(Nc2cncc(F)c2)nc(-c2cccc(Cl)n2)n1 [Compound 383, 6-(6-chloropyridin-2-yl)-N^2-(5-fluoropyridin-3-yl)-N^4-isopropyl-1,3,5-triazine-2,4-diamine] | 100 to 1000 nM | < 100 nM | 
CC#Cc1cccc(-c2nc(Nc3cccc(S(C)(=O)=O)c3)nc(NC(C)C)n2)n1 [Compound 365, N^2-isopropyl-N^4-(3-(methylsulfonyl)phenyl)-6-(6-(prop-1-ynyl)pyridin-2-yl)-1,3,5-triazine-2,4-diamine] | 1000 to 10000 nM |  | 
c1ccc(-c2nc(NCC3CNCCO3)nc(Nc3ccncc3)n2)cc1 (centres unmarked) [Compound 234, N^2-(morpholin-2-ylmethyl)-6-phenyl-N^4-(pyridin-4-yl)-1,3,5-triazine-2,4-diamine] |  |  | No Fit
CC(CO)Nc1nc(Nc2ccncc2)nc(-c2ccccc2)n1 (centres unmarked) [Compound 278, 2-(4-phenyl-6-(pyridin-4-ylamino)-1,3,5-triazin-2-ylamino)propan-1-ol] |  |  | No Fit
CC(C)Nc1nc(Nc2ccccc2)nc(-c2ccc(C#N)cc2)n1 [Compound 108] | 100 to 1000 nM |  | 
O=C(CO)Nc1nc(Nc2ccccc2)nc(-c2ccccc2)n1 [Compound 348, 2-hydroxy-N-(4-phenyl-6-(phenylamino)-1,3,5-triazin-2-yl)acetamide] | > 10000 nM |  | 
O=C(Nc1nc(Nc2ccccc2)nc(-c2ccccc2)n1)C1CCOC1 (centres unmarked) [Compound 415, N-(4-phenyl-6-(phenylamino)-1,3,5-triazin-2-yl)tetrahydrofuran-3-carboxamide] | > 10000 nM |  | 
CC(O)CNc1nc(Nc2ccncc2)nc(-c2ccccc2)n1 (centres unmarked) [Compound 271, 1-(4-phenyl-6-(pyridin-4-ylamino)-1,3,5-triazin-2-ylamino)propan-2-ol] |  |  | No Fit
c1ccc(-c2nc(Nc3ccncc3)nc(NC3CCCCC3)n2)cc1 [Compound 280, N^2-cyclohexyl-6-phenyl-N^4-(pyridin-4-yl)-1,3,5-triazine-2,4-diamine] | > 10000 nM |  | 
OC1CCC(Nc2nc(Nc3ccncc3)nc(-c3ccccc3)n2)CC1 (centres unmarked) [Compound 256, 4-(4-phenyl-6-(pyridin-4-ylamino)-1,3,5-triazin-2-ylamino)cyclohexanol] | 1000 to 10000 nM |  | 
O=C1CC(Nc2nc(Nc3ccncc3)nc(-c3ccccc3)n2)C1 [Compound 276, 3-(4-phenyl-6-(pyridin-4-ylamino)-1,3,5-triazin-2-ylamino)cyclobutanone] | 100 to 1000 nM |  | 

SMILES | IC50 [1] | IC50 [2] | Enz R140Q [1]
CC(C)C(CO)Nc1nc(Nc2ccncc2)nc(-c2ccccc2)n1 (centres unmarked) [Compound 279, 3-methyl-2-(4-phenyl-6-(pyridin-4-ylamino)-1,3,5-triazin-2-ylamino)butan-1-ol] | > 10000 nM |  | 
COC(C)CNc1nc(Nc2ccncc2)nc(-c2ccccc2)n1 (centres unmarked) [Compound 274, N^2-(2-methoxypropyl)-6-phenyl-N^4-(pyridin-4-yl)-1,3,5-triazine-2,4-diamine] | > 10000 nM |  | 
c1ccc(-c2nc(Nc3ccncc3)nc(NC3CCCOC3)n2)cc1 (centres unmarked) [Compound 273, 6-phenyl-N^2-(pyridin-4-yl)-N^4-(tetrahydro-2H-pyran-3-yl)-1,3,5-triazine-2,4-diamine] | > 10000 nM |  | 
N#CC1(Nc2nc(Nc3ccncc3)nc(-c3ccccc3)n2)CC1 [Compound 285, 1-(4-phenyl-6-(pyridin-4-ylamino)-1,3,5-triazin-2-ylamino)cyclopropanecarbonitrile] | 1000 to 10000 nM |  | 
c1ccc(-c2nc(Nc3ccncc3)nc(NC3CCOCC3)n2)cc1 [Compound 258, 6-phenyl-N^2-(pyridin-4-yl)-N^4-(tetrahydro-2H-pyran-4-yl)-1,3,5-triazine-2,4-diamine] | 1000 to 10000 nM |  | 
CCNC(=O)Nc1nc(Nc2ccccc2)nc(-c2ccccc2)n1 [Compound 207, 1-ethyl-3-(4-phenyl-6-(phenylamino)-1,3,5-triazin-2-yl)urea] | 100 to 1000 nM |  | 
OC1CCCCC1Nc1nc(Nc2ccncc2)nc(-c2ccccc2)n1 (centres unmarked) [Compound 282, 2-(4-phenyl-6-(pyridin-4-ylamino)-1,3,5-triazin-2-ylamino)cyclohexanol] |  |  | No Fit
c1ccc(-c2nc(Nc3ccncc3)nc(NC3CCCC3)n2)cc1 [Compound 287, N^2-cyclopentyl-6-phenyl-N^4-(pyridin-4-yl)-1,3,5-triazine-2,4-diamine] | 100 to 1000 nM |  | 
c1ccc(-c2nc(NCC3CCCO3)nc(Nc3ccncc3)n2)cc1 (centres unmarked) [Compound 222, 6-phenyl-N^2-(pyridin-4-yl)-N^4-((tetrahydrofuran-2-yl)methyl)-1,3,5-triazine-2,4-diamine] | 100 to 1000 nM |  | 
CC1(Nc2nc(Nc3ccncc3)nc(-c3ccccc3)n2)COC1 [Compound 251, N^2-(3-methyloxetan-3-yl)-6-phenyl-N^4-(pyridin-4-yl)-1,3,5-triazine-2,4-diamine] | 100 to 1000 nM |  | 
O=C1CCC(C(=O)Nc2nc(Nc3ccccc3)nc(-c3ccccc3)n2)N1 (centres unmarked) [Compound 413, 5-oxo-N-(4-phenyl-6-(phenylamino)-1,3,5-triazin-2-yl)pyrrolidine-2-carboxamide] | > 10000 nM |  | 
CC(C)(C)C(CO)Nc1nc(Nc2ccncc2)nc(-c2ccccc2)n1 (centres unmarked) [Compound 286, 3,3-dimethyl-2-(4-phenyl-6-(pyridin-4-ylamino)-1,3,5-triazin-2-ylamino)butan-1-ol] | > 10000 nM |  | 
CN(C)C(=O)Nc1nc(Nc2ccccc2)nc(-c2ccccc2)n1 [Compound 182, 1,1-dimethyl-3-(4-phenyl-6-(phenylamino)-1,3,5-triazin-2-yl)urea] | 100 to 1000 nM |  | 
c1ccc(-c2nc(NCC3CCO3)nc(Nc3ccncc3)n2)cc1 (centres unmarked) [Compound 264, N^2-(oxetan-2-ylmethyl)-6-phenyl-N^4-(pyridin-4-yl)-1,3,5-triazine-2,4-diamine] | 1000 to 10000 nM |  | 
O=C(Nc1nc(Nc2ccccc2)nc(-c2ccccc2)n1)c1ccn[nH]1 [Compound 347, N-(4-phenyl-6-(phenylamino)-1,3,5-triazin-2-yl)-1H-pyrazole-5-carboxamide] | 100 to 1000 nM |  | 
O=C(Nc1nc(Nc2ccccc2)nc(-c2ccccc2)n1)C1(O)CC1 [Compound 412, 1-hydroxy-N-(4-phenyl-6-(phenylamino)-1,3,5-triazin-2-yl)cyclopropanecarboxamide] | 1000 to 10000 nM |  | 
O[C@H]1CC[C@@H](Nc2nc(Nc3ccncc3)nc(-c3ccccc3)n2)C1 [Compound 283, (1S,3R)-3-(4-phenyl-6-(pyridin-4-ylamino)-1,3,5-triazin-2-ylamino)cyclopentanol] |  |  | No Fit
